# Measurements published in ChEMBL document CHEMBL3991950, “Imidazolidinedione derivatives” (2011).
# Calls of active or inactive are those of the source.
# Columns and labels:
# [1] = target: T1, Voltage-gated potassium channel KCNC2 (Homo sapiens) (UniProt Q96PR1); test: Modulation activity at human recombinant Kv3.2 expressed in CHOK1 cells assessed as potentiation of whole-cell currents by measuring activation time at 0.2 uM at -70 mV holding potential incubated for 3 mins by lonWorks Quattro system based electrophysiology assay
# T1 sequence (whole entry): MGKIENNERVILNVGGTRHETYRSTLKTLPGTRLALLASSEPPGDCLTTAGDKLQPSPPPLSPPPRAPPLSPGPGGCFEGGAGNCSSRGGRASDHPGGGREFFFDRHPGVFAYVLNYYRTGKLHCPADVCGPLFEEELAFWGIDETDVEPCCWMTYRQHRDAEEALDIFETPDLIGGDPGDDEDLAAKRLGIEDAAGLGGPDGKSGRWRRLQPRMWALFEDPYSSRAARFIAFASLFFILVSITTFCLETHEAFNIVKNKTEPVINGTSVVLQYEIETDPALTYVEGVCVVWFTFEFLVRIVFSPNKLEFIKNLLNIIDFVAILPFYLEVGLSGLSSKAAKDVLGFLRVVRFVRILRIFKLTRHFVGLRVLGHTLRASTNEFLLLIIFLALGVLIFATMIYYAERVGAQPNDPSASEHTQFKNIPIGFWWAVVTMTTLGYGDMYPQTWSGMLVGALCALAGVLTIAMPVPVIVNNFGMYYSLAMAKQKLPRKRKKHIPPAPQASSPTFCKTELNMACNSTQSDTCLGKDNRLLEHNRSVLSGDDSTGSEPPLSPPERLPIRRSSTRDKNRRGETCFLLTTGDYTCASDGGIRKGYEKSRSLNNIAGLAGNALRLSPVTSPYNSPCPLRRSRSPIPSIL
# [2] = target: T1, Voltage-gated potassium channel KCNC2 (Homo sapiens); test: Negative modulation activity at human recombinant Kv3.2 expressed in CHOK1 cells assessed as effect on activation time at -70 mV holding potential incubated for 3 mins by lonWorks Quattro system based electrophysiology assay; format: cell-based
# [3] = system: Mus musculus; test: Reduction in amphetamine-induced hyperactivity in CD1 mouse assessed as reduction in amphetamine-induced increase in total distance travelled at 3 mg/kg, ip pretreated with compound 30 mins before amphetamine challenge and measured over 60 mins post amphetamine challenge; format: functional, organism-based
# [4] = system: Mus musculus; test: Reduction in amphetamine-induced hyperactivity in CD1 mouse assessed as amphetamine-induced increase in total distance travelled at 3 mg/kg, ip pretreated with compound 30 mins before amphetamine challenge and measured over 60 mins post amphetamine challenge (reference value: 16304 +/- 3309 cm); format: functional
# [5] = target: T1, Voltage-gated potassium channel KCNC2 (Homo sapiens); test: Modulation activity at human recombinant Kv3.2 expressed in CHOK1 cells assessed as potentiation of whole-cell currents by measuring activation time at 0.4 uM at -70 mV holding potential incubated for 3 mins by lonWorks Quattro system based electrophysiology assay (reference value: 7.1 ms)
# [6] = target: T1, Voltage-gated potassium channel KCNC2 (Homo sapiens); test: Modulation activity at human recombinant Kv3.2 expressed in CHOK1 cells assessed as potentiation of whole-cell currents by measuring activation time at 3.1 uM at -70 mV holding potential incubated for 3 mins by lonWorks Quattro system based electrophysiology assay (reference value: 7.1 ms)
# [7] = target: T1, Voltage-gated potassium channel KCNC2 (Homo sapiens); test: Positive modulation activity at human recombinant Kv3.2 expressed in CHOK1 cells assessed as effect on activation time at -70 mV holding potential incubated for 3 mins by lonWorks Quattro system based electrophysiology assay (reference value: 7.1 ms); format: cell-based
# [8] = target: T1, Voltage-gated potassium channel KCNC2 (Homo sapiens); test: Modulation activity at human recombinant Kv3.2 expressed in CHOK1 cells assessed as potentiation of whole-cell currents by measuring activation time at 0.8 uM at -70 mV holding potential incubated for 3 mins by lonWorks Quattro system based electrophysiology assay (reference value: 7.1 ms)
# [9] = system: Rattus norvegicus; test: Increase in threshold for tonic hindlimb extensor seizures in CD rat model of electroshock seizure at 300 mg/kg, po relative to untreated control; format: functional
# [10] = system: Mus musculus; test: Reduction in amphetamine-induced hyperactivity in CD1 mouse assessed as reduction in amphetamine-induced increase in total distance travelled at 30 mg/kg, po pretreated with compound 30 mins before amphetamine challenge and measured over 60 mins post amphetamine challenge; format: functional, organism-based
# [11] = system: Rattus norvegicus; test: Increase in threshold for tonic hindlimb extensor seizures in CD rat model of electroshock seizure at 60 mg/kg, po relative to untreated control; format: functional
# [12] = target: T1, Voltage-gated potassium channel KCNC2 (Homo sapiens); test: Modulation activity at human recombinant Kv3.2 expressed in CHOK1 cells assessed as potentiation of whole-cell currents at 25 uM at -70 mV holding potential incubated for 3 mins by lonWorks Quattro system based electrophysiology assay
# [13] = system: Callithrix jacchus; test: Sedative or hypnotic effect in marmoset assessed as reduction in number of animal jumps at 1 and 3 mg/kg, po dosed 2 hrs before test and measured over 2 mins post dose; format: functional, organism-based
# [14] = target: T2, Voltage-gated potassium channel KCNC1 (Mus musculus) (UniProt P15388); test: Modulation activity at Kv3.1 channel-mediated potassium currents in neurons isolated from medial nucleus of trapezoid body in CBA/Ca mouse assessed as reversal of TEA-induced reduction in voltage steps to +40 mV-evoked amplitude of outward high voltage-activated potassium currents at 10 uM at resting potential of -60 mV incubated for 5 mins by electrophysiology assay
# T2 sequence (whole entry): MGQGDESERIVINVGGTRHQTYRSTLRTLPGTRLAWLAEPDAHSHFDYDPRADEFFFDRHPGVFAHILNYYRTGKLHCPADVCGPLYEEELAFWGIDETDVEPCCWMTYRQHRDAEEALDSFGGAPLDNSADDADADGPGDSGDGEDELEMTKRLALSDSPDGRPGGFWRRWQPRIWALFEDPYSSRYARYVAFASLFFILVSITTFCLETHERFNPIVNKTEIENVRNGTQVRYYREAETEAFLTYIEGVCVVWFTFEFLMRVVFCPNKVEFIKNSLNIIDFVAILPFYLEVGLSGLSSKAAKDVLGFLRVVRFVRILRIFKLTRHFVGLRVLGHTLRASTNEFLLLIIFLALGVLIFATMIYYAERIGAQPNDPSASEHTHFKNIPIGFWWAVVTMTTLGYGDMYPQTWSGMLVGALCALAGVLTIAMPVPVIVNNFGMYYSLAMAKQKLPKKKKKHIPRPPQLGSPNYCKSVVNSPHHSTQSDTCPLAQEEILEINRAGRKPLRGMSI
# [15] = target: T1, Voltage-gated potassium channel KCNC2 (Homo sapiens); test: Modulation activity at human recombinant Kv3.2 expressed in CHOK1 cells assessed as potentiation of whole-cell currents at 6.3 uM at -70 mV holding potential incubated for 3 mins by lonWorks Quattro system based electrophysiology assay
# [16] = system: Callithrix jacchus; test: Effect on animal postures in marmoset at 1 and 3 mg/kg, po dosed 2 hrs before test and measured over 2 mins post dose; format: ADME, organism-based; settings: in vivo
# [17] = system: Rattus norvegicus; test: Increase in threshold for tonic hindlimb extensor seizures in CD rat model of electroshock seizure at 30 mg/kg, po relative to untreated control; format: functional
# [18] = system: Mus musculus; test: Reduction in amphetamine-induced hyperactivity in CD1 mouse assessed as amphetamine-induced increase in total distance travelled at 10 mg/kg, po pretreated with compound 30 mins before amphetamine challenge and measured over 60 mins post amphetamine challenge (reference value: 16304 +/- 3309 cm); format: functional
# [19] = species on record: Mus musculus; test: (§1) Modulation activity at Kv3 channel-mediated firing activity of parvalbumin-positive interneurons isolated form somatosensory cortex of transgenic [CB6-Tg (Gad1-EGFP) G42Zjh/J] mouse assessed as reduction in 0.5 mM TEA-induced action potential half-width at 10 uM incubated for 1 hr at resting potential of -80 mV by electrophysiology assay
# [20] = system: Mus musculus; test: Reduction in amphetamine-induced hyperactivity in CD1 mouse assessed as reduction in amphetamine-induced increase in total distance travelled at 60 mg/kg, po pretreated with compound 30 mins before amphetamine challenge and measured over 60 mins post amphetamine challenge; format: functional, organism-based
# [21] = target: T1, Voltage-gated potassium channel KCNC2 (Homo sapiens); test: Modulation activity at human recombinant Kv3.2 expressed in CHOK1 cells assessed as potentiation of whole-cell currents by measuring activation time at 6.25 uM at -70 mV holding potential incubated for 3 mins by lonWorks Quattro system based electrophysiology assay (reference value: 7.1 ms)
# [22] = species on record: Mus musculus; test: as §1, with “1” for “10”
# [23] = system: Callithrix jacchus; test: Antipsychotic-like activity in common marmoset assessed as induction of increase in absolute power in delta band at 1 mg/kg, po measured at 30 mins by electroencephalography analysis; format: functional, organism-based
# [24] = system: Callithrix jacchus; test: Effect on absolute power in alpha band in common marmoset at 0.3 to 3 mg/kg, po by electroencephalography analysis; format: ADME, organism-based; settings: in vivo
# [25] = system: Callithrix jacchus; test: Antipsychotic-like activity in common marmoset assessed as induction of increase in absolute power in delta band at 3 mg/kg, po measured between 30 and 120 mins by electroencephalography analysis; format: functional, organism-based
# [26] = system: Callithrix jacchus; test: Antipsychotic-like activity in common marmoset assessed as induction of reduction in power in beta band at 1 mg/kg, po measured at 30 mins by electroencephalography analysis; format: functional, organism-based
# [27] = system: Callithrix jacchus; test: Antipsychotic-like activity in common marmoset assessed as induction of increase in theta band power at 3 mg/kg, po measured at 60 mins by electroencephalography analysis; format: functional, organism-based
# [28] = target: T1, Voltage-gated potassium channel KCNC2 (Homo sapiens); test: Modulation activity at human recombinant Kv3.2 expressed in CHOK1 cells assessed as potentiation of whole-cell currents by measuring activation time at 12.5 uM at -70 mV holding potential incubated for 3 mins by lonWorks Quattro system based electrophysiology assay (reference value: 7.1 ms)
smiles,measurement,setting,value
CC[C@H]1NC(=O)N(c2ccc(Oc3ccc(C#N)cc3C(C)(C)C)nc2)C1=O,TIME,[1],6.39e-06 h
same,inhibition,[2],Active
CN1CCN(C2=Nc3cc(Cl)ccc3Nc3ccccc32)CC1 [CLOZAPINE],Activity,[3],Active
same,Activity,[4],932 cm
CC1(C)NC(=O)N(c2ccc(Oc3cccc4c3C3(CC3)CO4)nc2)C1=O,TIME,[5],5.36e-06 h
same,inhibition,[2],Active
CC[C@H]1NC(=O)N(c2ccc(Oc3ccc(C#N)c(OC(F)(F)F)c3)nc2)C1=O,TIME,[6],2.89e-06 h
CCc1cc(Oc2ccc(N3C(=O)N[C@H](CC)C3=O)cn2)ccc1C#N,TIME,[6],2.28e-06 h
CC[C@H]1NC(=O)N(c2ccc(Oc3ccc(C#N)c(C4CC4)c3)nc2)C1=O,Activity,[7],Active
same,TIME,[6],2.11e-06 h
CC[C@H]1NC(=O)N(c2ccc(Oc3ccc(C#N)cc3C3CC3)nc2)C1=O,Activity,[7],Active
same,TIME,[6],3.61e-06 h
CC[C@H]1NC(=O)N(c2ccc(Oc3ccc(C#N)c(C(C)C)c3)nc2)C1=O,Activity,[7],Active
same,TIME,[8],2.56e-06 h
CCCC(CCC)C(=O)[O-].[Na+] [VALPROATE SODIUM],Activity,[9],258%
CC[C@H]1NC(=O)N(c2ccc(Oc3ccc(C)c(OC)c3)nc2)C1=O,Activity,[10],Active
same,Activity,[11],218%
same,Activity,[12],Active
same,Activity,[13],Active
same,Activity,[14],Active
same,Activity,[15],Active
same,Activity,[16],Non-Toxic
same,Activity,[7],Active
same,Activity,[17],91%
same,Activity,[18],15267 cm
same,inhibition,[19],36%
same,Activity,[20],Active
same,TIME,[21],2.75e-06 h
same,inhibition,[22],24%
CC[C@H]1NC(=O)N(c2ccc(Oc3ccc(C#N)c(OC(C)C)c3)nc2)C1=O,TIME,[6],2.69e-06 h
CC[C@@]1(C)NC(=O)N(c2ccc(Oc3ccc(C)c(OC)c3)nc2)C1=O,Activity,[23],Active
same,Activity,[24],Non-Toxic
same,Activity,[25],Active
same,Activity,[26],Active
same,Activity,[27],Active
same,Activity,[7],Active
same,TIME,[28],2.03e-06 h
